Results as given in US4529589A, “Pharmaceutical composition for the treatment of diabetes mellitus” (priority 1981, dated 1985).

Key:
[1] = system: volunteer suffering from diabetes; assay: sugar curve after dietic breakfast in volunteer with diabetes in a light form; assay type: in vivo, human
Protocol: Volunteer (body weight 89 kg) suffered from diabetes in a light form for 10 years. The blood sugar level in the morning on empty stomach was varied from 125 to 190 mg%. On recommendation of the endocrinologist, they were treated with maninyl in a dose of from 0.00125 to 0.0025 g (1/4-1/2 of a tablet) a day. 6 tests were performed including 1 control sugar curve at the background of administration of a dietic breakfast, the 2-nd test--the same curve but with administration, during breakfast, of 0.00125 g of maninyl and 4 tests with the preparation according to the present invention. The doses of insulin in the plates of the preparation of this invention were […]. The duration of resorption of the plates was 9 to 36 minutes. The breakfast was 9-37 minutes thereafter.
The sugar curve obtained after the control test against the background of having a dietic breakfast without hypoglycemic remedies had the following character: the starting blood sugar level was 125 mg%; after 30 minutes since the breakfast--153 mg%; 60 minutes thereafter--155 mg%, 2 hours thereafter--135 mg%, i.e., after 30 and 60 minutes, the blood sugar level was increased by 22 and 24% respectively relative to the initial value.
In a week, the test was repeated; however, during the dietic breakfast, the volunteer was administered 0.00125 g of maninyl (1/4 of a tablet). […] The absolute level of blood sugar was as high as 200 mg%. After 120 minutes, a high blood sugar level was retained--170 mg% which was by 10% higher than the initial value on the same day of investigation.
One week afterwards, the experiment was repeated. The initial level of blood sugar was equal to 190 mg%. The volunteer was administered a plate of the preparation of this invention containing 16 units of insulin (test dose) sublingually; 30 minutes thereafter, the volunteer had breakfast (dietic one). 30 minutes after the breakfast, the blood sugar level was increased up to 200 mg% (by 5% altogether) which was by 17% below the raise in the control test; after 60 minutes--by 26% (240 mg%) which substantially corresponded to the level raise in the control investigation (+2%) and after 120 minutes--reduced by 8% of the initial value (175 mg%) which was by 16% below the level in the control test.

[2] = system: patients; details: subcutaneous (sometimes intramuscular) injection, majority of patients; cited from earlier work
[3] = system: volunteer patients-physicians; assay: sugar curve after glucose load per os (0.7 g/kg) in volunteers; assay type: in vivo, human; details: for decrease in the blood sugar level as compared to the control sugar curve: subcutaneous 16 units (after volunteer I.)
Protocol: The pharmaceutical preparation for the treatment of diabetes mellitus has been studied on volunteer patients-physicians. The experiments have been performed on 8 volunteers. 58 tests were carried out including 9 control tests without administration of insulin, 6 control tests with subcutaneous administration of insulin and 43 experimental tests with the administration of plates of the preparation according to the present invention. The control investigation--a sugar curve--has been taken for every volunteer. This involved determination of the blood sugar level in an empty stomach, whereafter the patient was administered glucose per os at the rate of 0.7 g/kg of the body weight diluted with 200 ml of warm water and then the blood sugar level was determined after 30, 60 and 120 minutes. Therefore, in this manner, the blood sugar level variations were determined under the effect of administration of gluclose including the determination of the maximum increase as a percentage of the starting sugar level in blood in the empty-stomach state. After 1-2 weeks, the investigation with a similar sugar load was repeated simultaneously with subcutaneous administration of crystalline insulin at the rate of 0.1-0.2 unit/kg of the body weight right after the administration of the same dose of glucose. After an additional 1-2 weeks, the investigation with the preparation according to the present invention has been carried out. The preparation according to the present invention in the form of plates of a polymer was placed under the tongue by application of the plates to the lower lingual surface at its root or at any other suitable place of the mucous membrane of the mouth cavity. The content of insulin in the plates was varied from 8 to 150 units. After a complete resorption of the plate, maximum within 60 minutes, the volunteer was given a standard dose of glucose per os. The blood examination for sugar has been performed on an empty stomach after 30, 60 and 120 minutes since the glucose administration. The hypoglycemic effect of the test preparations was evaluated by the difference in sugar levels in blood (%) as compared to the control test (without insulin).

COc1ccc(Cl)cc1C(=O)NCCc1ccc(S(=O)(=O)NC(=O)NC2CCCCC2)cc1 [maninyl]
raise of the sugar curve, % of the initial value ([1]; 0.00125 g during dietic breakfast, after 30 and 60 minutes, starting level 155 mg%): +29% | blood sugar level higher than the initial value ([1]; 0.00125 g during dietic breakfast, after 120 minutes): 10% | absolute level of blood sugar (as high as) ([1]; 0.00125 g during dietic breakfast, starting level 155 mg%): 200 mg% | hypoglycemic effect (in words) ([1]; dose prescribed by the endocrinologist): no hypoglycemic effect at all

crystalline insulin: crystalline insulin administered subcutaneously as comparison
time to maximum effect [2]: 2 to 5 h | sugar level higher than the control value ([3]; subcutaneous 8 units (volunteer D.), after 30 minutes): 6% | sugar level below the control level ([3]; subcutaneous 8 units (volunteer D.), after 60 minutes): 60% | sugar level above the control level ([3]; subcutaneous 8 units (volunteer D.), after 120 minutes): 20% | blood sugar level exceeded the control value ([3]; subcutaneous 8 units (volunteer P.), after 30 minutes): 16% | blood sugar level below the control value ([3]; subcutaneous 8 units (volunteer P.), after 60 minutes): 43% | blood sugar level below the control ([3]; subcutaneous 8 units (volunteer P.), after 120 minutes): 12% | blood sugar level increased as compared to the initial value ([3]; subcutaneous 8 units with 56 g glucose (volunteer D.), after 30 minutes): 86% | blood sugar level increased as compared to the initial value ([3]; subcutaneous 8 units with 56 g glucose (volunteer D.), after 60 minutes): 40% | blood sugar level increased as compared to the initial value ([3]; subcutaneous 8 units with 56 g glucose (volunteer D.), after 120 minutes): 33% | blood sugar level increased as compared to the initial value ([3]; subcutaneous 8 units with 56 g glucose (volunteer P.), after 30 minutes): 87% | blood sugar level lowered ([3]; subcutaneous 8 units with 56 g glucose (volunteer P.), after 60 minutes): 53% | blood sugar level relative to the initial level (in words) ([3]; subcutaneous 8 units with 56 g glucose (volunteer P.), after 120 minutes): returned to the initial level | decrease in the blood sugar level as compared to the control sugar curve ([3]; after 30 minutes): 55% | decrease in the blood sugar level as compared to the control sugar curve ([3]; after 60 minutes): 18% | decrease in the blood sugar level as compared to the control sugar curve ([3]; after 120 minutes): 34% | sugar level in blood increased relative to the initial value ([3]; subcutaneous 16 units with 56 g glucose (after volunteer I.), after 30 minutes): 31% | sugar level in blood increased relative to the initial value ([3]; subcutaneous 16 units with 56 g glucose (after volunteer I.), after 60 minutes): 13% | sugar level in blood reduced relative to the initial value ([3]; subcutaneous 16 units with 56 g glucose (after volunteer I.), after 120 minutes): 7%
